Experimental data taken from patent publication US20150216898A1, “COMPOSITION FOR TREATING PSORIASIS” (PSORIASIS+CREAMS SWEDEN AB, priority 2012, published 2015).

Test system: subjects suffering from psoriasis
Test: Previous treatment(s) of the subjects (anamnesis)
Assay type: in vivo, human
Conditions: Subject 4; previous treatment supplemented with moisturisers and emollients; responded well at first, more frequent relapses later
Excerpt: The subject had been diagnosed with psoriasis for nearly 25 years ago and had previously used combinations of local corticosteroids and emollient and moisturizing creams. Further, the subject had also tried photo therapy as well as a topical tar based product (Skillingarydsalvan Original). […] Further, the subject experienced side-effects (e g skin damage, such as skin thinning, changes in pigmentation, easy bruising, stretch marks, redness and dilated surface blood vessels) typically seen with treatment with corticosteroids.
Previous treatment(s): The subject had used corticosteroids such as mometasone furoate, prednicarbate and most recently calcitriol, always supplementing the treatment with moisturisers and emollients.

Compound	effect of previous treatment over time
CCOC(=O)O[C@]1(C(=O)COC(=O)CC)CC[C@H]2[C@@H]3CCC4=CC(=O)C=C[C@]4(C)[C@H]3[C@@H](O)C[C@@]21C [prednicarbate]	no longer as effective
C[C@@H]1C[C@H]2[C@@H]3CCC4=CC(=O)C=C[C@]4(C)[C@@]3(Cl)[C@@H](O)C[C@]2(C)[C@@]1(OC(=O)c1ccco1)C(=O)CCl [mometasone furoate]	no longer as effective
C=C1/C(=C\C=C2/CCC[C@]3(C)[C@@H]([C@H](C)CCCC(C)(C)O)CC[C@@H]23)C[C@@H](O)C[C@@H]1O [calcitriol]	no longer as effective
